The assay relates to BDF1 mice, L1210 terephthalanilide-resistant leukemia ip, survival T/C. The assay is described as follows: NCI In Vivo Anticancer Drug Screen. Data for tumor model L1210 Leukemia resistant to A Terephthalanilide; NSC 38280 (intraperitoneal) in B6D2F1 (BDF1) mice. The settings on record: endpoint: mean survival time, higher = longer survival. The procedure:
The antitumor activity of compounds was measured in mice bearing transplantable tumors. Survival or tumor size were measured and the results are expressed as the measurement made in the treated group (T) divided by the measurement made in the vehicle treated control group (C). The tumor model used in this assay is L1210 Leukemia resistant to A Terephthalanilide; NSC 38280 (intraperitoneal) in B6D2F1 (BDF1) mice

[1] abbreviates: dose: 6.25 mg/kg/injection, schedule: Q01DX010 (ip), vehicle: saline.
Setting [2] is: dose: 12.5 mg/kg/injection, schedule: Q01DX010 (ip), vehicle: saline.
Where [3] appears, read: dose: 25.0 mg/kg/injection, schedule: Q01DX010 (ip), vehicle: saline.
Setting [4] is: dose: 50.0 mg/kg/injection, schedule: Q01DX010 (ip), vehicle: saline.
Where [5] appears, read: dose: 100.0 mg/kg/injection, schedule: Q01DX010 (ip), vehicle: saline.
Setting [6] is: dose: 25.0 mg/kg/injection, schedule: Q01DX Z (ip), vehicle: carboxymethylcellulose (CMC).

Several values for one entry are separate records, joined by “and”; a condition that tells them apart may be missing. Equal entries are not always repeated. Toxic doses and inconclusive results are not listed.

As for `CS(=O)(=O)OCCCCOS(C)(=O)=O`, the T/C was 98 % of control and 103 % of control under setting [1]; 100 % of control and 102 % of control under setting [2]; 93 % of control and 102 % of control under setting [3]; 98 % of control and 100 % of control under setting [4].
As to `CC(=O)Nc1ccc2nc3ccc(NC(C)=O)cc3[n+](-c3ccccc3)c2c1`, the T/C is, setting by setting: (dose: 10.0 mg/kg/injection, schedule: Q01DX Z (ip), vehicle: carboxymethylcellulose (CMC)) 108 % of control; under setting [2], 107 % of control; (dose: 20.0 mg/kg/injection, schedule: Q01DX Z (ip), vehicle: carboxymethylcellulose (CMC)) 117 % of control; under setting [3], 109 % of control and 110 % of control; under setting [4], 121 % of control and 104 % of control; under setting [5], 106 % of control and 112 % of control. For the same compound, the T/C reads like this: (dose: 150.0 mg/kg/injection, schedule: Q01DX Z (ip), vehicle: carboxymethylcellulose (CMC)) 121 % of control; (dose: 300.0 mg/kg/injection, schedule: Q01DX Z (ip), vehicle: carboxymethylcellulose (CMC)) 120 % of control; (dose: 400.0 mg/kg/injection, schedule: Q01DX Z (ip), vehicle: carboxymethylcellulose (CMC)) 91 % of control.
Turning to `CS(=O)(=O)OCCCl`, the T/C by setting is: (dose: 18.8 mg/kg/injection, schedule: Q01DX010 (ip), vehicle: saline) 99 % of control and 108 % of control; (dose: 37.5 mg/kg/injection, schedule: Q01DX010 (ip), vehicle: saline) 90 % of control and 103 % of control; (dose: 44.0 mg/kg/injection, schedule: Q01DX Z (ip), vehicle: saline) 103 % of control; (dose: 75.0 mg/kg/injection, schedule: Q01DX010 (ip), vehicle: saline) 107 % of control and 108 % of control; (dose: 87.5 mg/kg/injection, schedule: Q01DX Z (ip), vehicle: saline) 115 % of control; (dose: 150.0 mg/kg/injection, schedule: Q01DX010 (ip), vehicle: saline) 89 % of control. In addition, under “dose: 175.0 mg/kg/injection, schedule: Q01DX Z (ip), vehicle: saline”, the T/C is 119 % of control.
As for `Nc1nc(N)c2nc(CNc3ccc(C(=O)NC(CCC(=O)O)C(=O)O)cc3)cnc2n1` (stereo unspecified), the T/C (dose: 0.03 mg/kg/injection, schedule: Q01DX010 (ip), vehicle: other) is 99 % of control and 109 % of control; the T/C (dose: 0.05 mg/kg/injection, schedule: Q01DX010 (ip), vehicle: other) was 123 % of control and 101 % of control; the T/C (dose: 0.1 mg/kg/injection, schedule: Q01DX010 (ip), vehicle: other) was 122 % of control and 124 % of control.
Take `O=c1c(O)cccc2cc(O)c(O)c(O)c12`: the T/C reads like this: under setting [3], 98 % of control; under setting [4], 93 % of control; under setting [5], 89 % of control.
For `N#[N+]c1cnc([O-])[nH]c1=O`, the T/C (dose: 1.25 mg/kg/injection, schedule: Q01DX010 (ip), vehicle: saline) was 110 % of control; the T/C (dose: 2.5 mg/kg/injection, schedule: Q01DX Z (ip), vehicle: alkali diluted with saline) is 102 % of control; the T/C (dose: 5.0 mg/kg/injection, schedule: Q01DX Z (ip), vehicle: alkali diluted with saline) is 102 % of control; the T/C (dose: 7.5 mg/kg/injection, schedule: Q01DX Z (ip), vehicle: alkali diluted with saline) is 106 % of control; the T/C (dose: 10.0 mg/kg/injection, schedule: Q01DX Z (ip), vehicle: saline) was 172 % of control; the T/C (dose: 15.0 mg/kg/injection, schedule: Q01DX Z (ip), vehicle: alkali diluted with saline) is 108 % of control. Further, the T/C (dose: 20.0 mg/kg/injection, schedule: Q01DX Z (ip), vehicle: saline) was 96 % of control.
For the compound `c1ccc(CCSc2ncnc3nc[nH]c23)cc1`, the T/C is 90 % of control (dose: 62.5 mg/kg/injection, schedule: Q01DX010 (ip), vehicle: saline); 104 % of control (dose: 125.0 mg/kg/injection, schedule: Q01DX010 (ip), vehicle: saline); 99 % of control (dose: 250.0 mg/kg/injection, schedule: Q01DX010 (ip), vehicle: saline).
On to `Nc1nc(F)nc2c1ncn2C1OC(CO)C(O)C1O` (stereo unspecified), for which the T/C runs as follows: (dose: 0.75 mg/kg/injection, schedule: Q01DX Z (ip), vehicle: saline) 111 % of control; (dose: 1.5 mg/kg/injection, schedule: Q01DX Z (ip), vehicle: saline) 108 % of control; (dose: 3.0 mg/kg/injection, schedule: Q01DX Z (ip), vehicle: saline) 114 % of control; (dose: 6.0 mg/kg/injection, schedule: Q01DX Z (ip), vehicle: saline) 101 % of control.
For the compound `O=c1[nH]c(=O)n(C2CC(O)C(CO)O2)cc1Br` (stereo unspecified), the T/C reads like this: (dose: 62.5 mg/kg/injection, schedule: Q01DX Z (ip), vehicle: carboxymethylcellulose (CMC)) 110 % of control; (dose: 500.0 mg/kg/injection, schedule: Q01DX Z (ip), vehicle: carboxymethylcellulose (CMC)) 119 % of control.
Regarding `CS(=O)(=O)OCCN(CCOS(C)(=O)=O)c1ccc(N=O)cc1`, the T/C (dose: 0.5 mg/kg/injection, schedule: Q01DX010 (ip), vehicle: saline) is 122 % of control; the T/C (dose: 1.0 mg/kg/injection, schedule: Q01DX010 (ip), vehicle: saline) was 115 % of control; the T/C (dose: 2.0 mg/kg/injection, schedule: Q01DX010 (ip), vehicle: saline) was 98 % of control; the T/C (dose: 125.0 micrograms/kg/injection, schedule: Q01DX010 (ip), vehicle: saline) is 118 % of control; the T/C (dose: 1000.0 micrograms/kg/injection, schedule: Q01DX010 (ip), vehicle: saline) is 116 % of control.
On to `CS(=O)(=O)OCCC(=O)N1CCN(C(=O)CCOS(C)(=O)=O)CC1`, for which the T/C was 106 % of control and 109 % of control under setting [2]; 120 % of control under setting [3]; 107 % of control under setting [4]; 120 % of control under setting [5].
Consider `O=C1C(NC(=O)C2CCCCC2)=C(N2CC2)C(=O)C(NC(=O)C2CCCCC2)=C1N1CC1`, for which the T/C under setting [1] is 98 % of control; the T/C under setting [2] is 98 % of control; the T/C (dose: 18.0 mg/kg/injection, schedule: Q01DX Z (ip), vehicle: carboxymethylcellulose (CMC)) is 108 % of control; the T/C under setting [3] is 93 % of control and 98 % of control; the T/C under setting [6] is 97 % of control; the T/C (dose: 37.5 mg/kg/injection, schedule: Q01DX Z (ip), vehicle: carboxymethylcellulose (CMC)) is 91 % of control. The T/C under setting [4] was 90 % of control and 102 % of control; the T/C (dose: 50.0 mg/kg/injection, schedule: Q01DX Z (ip), vehicle: carboxymethylcellulose (CMC)) is 100 % of control; the T/C (dose: 125.0 mg/kg/injection, schedule: Q01DX Z (ip), vehicle: carboxymethylcellulose (CMC)) is 121 % of control; the T/C (dose: 250.0 mg/kg/injection, schedule: Q01DX Z (ip), vehicle: carboxymethylcellulose (CMC)) is 122 % of control.
As to `Nc1ncnc2[nH]ncc12`, the T/C (dose: 1.5 mg/kg/injection, schedule: Q01DX010 (ip), vehicle: saline) was 103 % of control and 105 % of control; the T/C (dose: 3.0 mg/kg/injection, schedule: Q01DX010 (ip), vehicle: saline) was 103 % of control and 108 % of control; the T/C (dose: 6.0 mg/kg/injection, schedule: Q01DX010 (ip), vehicle: saline) is 107 % of control and 111 % of control; the T/C (dose: 12.0 mg/kg/injection, schedule: Q01DX010 (ip), vehicle: saline) is 102 % of control; the T/C under setting [6] is 90 % of control.

These data come from PubChem BioAssay AID282 (DTP/NCI, 2004).
